# Test results reported in publication PMC2694832, “Pharmacokinetics, tissue distribution and mass balance of radiolabeled dihydroartemisinin in male rats” (Malaria Journal, 2009).
# Experiment: Tissue distribution of [^14C] DHA
# Assay type: in vivo, rats
# Details: for Distribution of radioactivity / % of total AUC / Half-lives of radioactivity / Tissue AUC of radioactivity / % total recovery: male rats i.v. 3 mg/20 μCi/kg; for % total recovery: all measured tissues
# Method: Rats treated with a single [^14C] DHA dose of 3 mg/20 μCi/kg intravenously (5 rats per group) were anesthaetized by isofluorane and euthanized via cardiac puncture at 1, 6, 24, 48, 72, 96, and 192 hours, post-dosing. Blood, liver, brain, eyes, adrenals, muscle, lungs, heart, liver, kidneys, spleen, stomach, small intestine, large intestine, perirenal fat and bone marrow samples were removed from each animal by gross dissection. The gastrointestinal tract (GI) was separated into the stomach (oesophagus and stomach), small intestine, and large intestine. Contents were procured from each GI segment. After flushing with saline, these and other tissues were stored. Tissues were rinsed gently, but thoroughly with water to remove remaining traces of blood before storage. Dissecting instruments were also washed between tissue procurements to avoid cross-contamination.
# For most of the tissues 20% (w/w) aqueous homogenates of the tissue were prepared. Aqueous homogenates of the faecal and GI content samples were also prepared. Metabolism cages were washed with a solution of 2% Count-off® and the volume was measured. Radioactivity in the plasma samples and in aliquots (approx. 0.02–1.0 ml) of urine and cage washings was determined. The blood cells (primarily erythrocytes), perirenal fat (approx. 0.2 g), bone marrow samples (approx. 0.1 ml), and approximately 300-μl aliquots of the homogenates of faeces, liver, kidneys, heart, brain, stomach and carcass were solubilized with SolvableTM tissue solubilizer (Perkin-Elmer Life and Analytical Sciences, Boston, MA). The homogenates of faeces, stomach content, and intestinal contents were extracted with 50% methanol for 24 hours. Aliquots of blood and pooled urine samples from selected intervals were also analysed for DHA content directly.
# Total radioactivity in the collected tissue samples were quantified in duplicate. Weighed tissue aliquots (~0.2 g) were digested overnight in 2 ml of Solvable® tissue solubilizer (Perkin-Elmer Life and Analytical Sciences, Boston, MA) at 50°C. Coloured samples were decolourized by adding a maximum of 0.2 ml of 30% H2O2 for 30–60 minutes. Scintillation cocktail (Hyonic Fluor; Perkin-Elmer Boston. Massachusetts, USA) was then added and radioactivity determined in a Perkin-Elmer Tri-Carb 3100 TR scintillation spectrophotometer (Packard Instrument Co., Downers Grove, Illinois, USA). Faeces and intestinal contents were thoroughly homogenized before taking aliquots. Plasma was also analysed using the HPLC-ECD system to measure the concentration of unchanged DHA, as described by Li et al.
smiles,measurement,setting,value
"C[C@@H]1CC[C@H]2[C@@H]([14CH3])C(O)O[C@@H]3O[C@@]4(C)CC[C@@H]1[C@]32OO4 (stereo partly drawn) [[^14C] DHA, [16-^14C] DHA]",Distribution of radioactivity,"Lungs, 24 hr",398.52 ng equivalents/tissue gram
same,Distribution of radioactivity,"Lungs, 48 hr",305.34 ng equivalents/tissue gram
same,Distribution of radioactivity,"Lungs, 72 hr",303.10 ng equivalents/tissue gram
same,Distribution of radioactivity,"Lungs, 96 hr",236.70 ng equivalents/tissue gram
same,Distribution of radioactivity,"Lungs, 192 hr",221.64 ng equivalents/tissue gram
same,% of total AUC,Lungs,2.03%
same,Half-lives of radioactivity,Lungs,86.19 ± 18.00 h
same,Tissue AUC of radioactivity,Lungs,"85,916 ng·hr/g"
same,Tissue AUC of radioactivity,"Lungs, listed as [^14C]-dihydroartemisinin",85916 ± 12999 ng·h/g
same,% of total AUC,Muscle,0.86%
same,Half-lives of radioactivity,Muscle,64.45 ± 13.54 h
same,Tissue AUC of radioactivity,Muscle,36371 ± 6994 ng·h/g
same,Distribution of radioactivity,"Plasma, 1 hr",591.34 ng equivalents/tissue gram
same,Distribution of radioactivity,"Plasma, 6 hr",540.83 ng equivalents/tissue gram
same,Distribution of radioactivity,"Plasma, 24 hr",216.03 ng equivalents/tissue gram
same,Distribution of radioactivity,"Plasma, 48 hr",93.02 ng equivalents/tissue gram
same,% of total AUC,Plasma,0.49%
same,Tissue AUC of radioactivity,Plasma,20750 ± 1031 ng·h/g
same,Half-lives of radioactivity,"Plasma, listed as [^14C]-dihydroartemisinin",75.57 ± 7.34 h
same,Distribution of radioactivity,"SI Content, 1 hr",46426.85 ng equivalents/tissue gram
same,Distribution of radioactivity,"SI Content, 6 hr",11387.30 ng equivalents/tissue gram
same,Distribution of radioactivity,"SI Content, 24 hr",2283.61 ng equivalents/tissue gram
same,Distribution of radioactivity,"SI Content, 48 hr",633.61 ng equivalents/tissue gram
same,Distribution of radioactivity,"SI Content, 72 hr",575.05 ng equivalents/tissue gram
same,Distribution of radioactivity,"SI Content, 96 hr",176.57 ng equivalents/tissue gram
same,Distribution of radioactivity,"SI Content, 192 hr",250.03 ng equivalents/tissue gram
same,% of total AUC,SI Content,35.25%
same,Half-lives of radioactivity,SI Content,28.73 ± 9.05 h
same,Tissue AUC of radioactivity,SI Content,1492988 ± 63053 ng·h/g
same,Distribution of radioactivity,"Small intestine (SI), 1 hr",8155.95 ng equivalents/tissue gram
same,Distribution of radioactivity,"Small intestine (SI), 6 hr",3014.58 ng equivalents/tissue gram
same,Distribution of radioactivity,"Small intestine (SI), 24 hr",821.84 ng equivalents/tissue gram
same,Distribution of radioactivity,"Small intestine (SI), 48 hr",335.42 ng equivalents/tissue gram
same,Distribution of radioactivity,"Small intestine (SI), 72 hr",389.72 ng equivalents/tissue gram
same,Distribution of radioactivity,"Small intestine (SI), 96 hr",235.61 ng equivalents/tissue gram
same,Distribution of radioactivity,"Small intestine (SI), 192 hr",304.12 ng equivalents/tissue gram
same,% of total AUC,Small intestine (SI),3.10%
same,Half-lives of radioactivity,Small intestine (SI),49.99 ± 34.89 h
same,Tissue AUC of radioactivity,Small intestine (SI),"131,264 ng·hr/g"
same,Tissue AUC of radioactivity,"Small intestine (SI), listed as [^14C]-dihydroartemisinin",131264 ± 24631 ng·h/g
same,Distribution of radioactivity,"Spleen, 1 hr","4,387 ng equivalents/tissue gram"
same,Distribution of radioactivity,"Spleen, 1 hr, listed as [^14C]-dihydroartemisinin",4387.40 ng equivalents/tissue gram
same,Distribution of radioactivity,"Spleen, 6 hr","3,685 ng equivalents/tissue gram"
same,Distribution of radioactivity,"Spleen, 6 hr, listed as [^14C]-dihydroartemisinin",3684.97 ng equivalents/tissue gram
same,Distribution of radioactivity,"Spleen, 24 hr","3,061 ng equivalents/tissue gram"
same,Distribution of radioactivity,"Spleen, 24 hr, listed as [^14C]-dihydroartemisinin",3061.40 ng equivalents/tissue gram
same,Distribution of radioactivity,"Spleen, 48 hr","4,216 ng equivalents/tissue gram"
same,Distribution of radioactivity,"Spleen, 48 hr, listed as [^14C]-dihydroartemisinin",4216.03 ng equivalents/tissue gram
same,Distribution of radioactivity,"Spleen, 72 hr",4446.65 ng equivalents/tissue gram
same,Distribution of radioactivity,"Spleen, 96 hr",4464.57 ng equivalents/tissue gram
same,Distribution of radioactivity,"Spleen, 192 hr","5,170 ng equivalents/tissue gram"
same,Distribution of radioactivity,"Spleen, 192 hr, listed as [^14C]-dihydroartemisinin",5170.22 ng equivalents/tissue gram
same,% of total AUC,Spleen,14.58%
same,Half-lives of radioactivity,Spleen,114.02 ± 57.67 h
same,Tissue AUC of radioactivity,Spleen,"617,495 ng·hr/g"
same,Tissue AUC of radioactivity,"Spleen, listed as [^14C]-dihydroartemisinin",617495 ± 410768 ng·h/g
same,Distribution of radioactivity,"Stomach Content, 1 hr",36.03 ng equivalents/tissue gram
same,Distribution of radioactivity,"Stomach Content, 6 hr",6289.79 ng equivalents/tissue gram
same,Distribution of radioactivity,"Stomach Content, 24 hr",22.45 ng equivalents/tissue gram
same,Distribution of radioactivity,"Stomach Content, 48 hr",98.12 ng equivalents/tissue gram
same,Distribution of radioactivity,"Stomach Content, 72 hr",18.69 ng equivalents/tissue gram
same,Distribution of radioactivity,"Stomach Content, 96 hr",11.76 ng equivalents/tissue gram
same,Distribution of radioactivity,"Stomach Content, 192 hr",343.37 ng equivalents/tissue gram
same,% of total AUC,Stomach Content,0.53%
same,Half-lives of radioactivity,Stomach Content,16.75 ± 16.30 h
same,Tissue AUC of radioactivity,Stomach Content,22362 ± 98089 ng·h/g
same,Distribution of radioactivity,"Stomach, 1 hr",1366.22 ng equivalents/tissue gram
same,Distribution of radioactivity,"Stomach, 6 hr",932.33 ng equivalents/tissue gram
same,Distribution of radioactivity,"Stomach, 24 hr",464.21 ng equivalents/tissue gram
same,Distribution of radioactivity,"Stomach, 48 hr",342.30 ng equivalents/tissue gram
same,Distribution of radioactivity,"Stomach, 72 hr",337.48 ng equivalents/tissue gram
same,Distribution of radioactivity,"Stomach, 96 hr",229.69 ng equivalents/tissue gram
same,Distribution of radioactivity,"Stomach, 192 hr",218.27 ng equivalents/tissue gram
same,% of total AUC,Stomach,1.94%
same,Half-lives of radioactivity,Stomach,72.58 ± 12.98 h
same,Tissue AUC of radioactivity,Stomach,82125 ± 13428 ng·h/g
same,Distribution of radioactivity,"Testis, 1 hr",624.14 ng equivalents/tissue gram
same,Distribution of radioactivity,"Testis, 6 hr",513.53 ng equivalents/tissue gram
same,Distribution of radioactivity,"Testis, 24 hr",176.47 ng equivalents/tissue gram
same,Distribution of radioactivity,"Testis, 48 hr",155.78 ng equivalents/tissue gram
same,Distribution of radioactivity,"Testis, 72 hr",151.29 ng equivalents/tissue gram
same,Distribution of radioactivity,"Testis, 96 hr",123.54 ng equivalents/tissue gram
same,Distribution of radioactivity,"Testis, 192 hr",141.04 ng equivalents/tissue gram
same,Tissue AUC of radioactivity,Testis,48249 ± 6078 ng·h/g
same,Half-lives of radioactivity,"Testis, listed as [^14C]-dihydroartemisinin",86.24 ± 40.68 h
same,Half-lives of radioactivity,Total Amounts line,69.03 ± 22.13 h
same,Tissue AUC of radioactivity,Total Amounts line,4234952.00 ng·h/g
same,% total recovery,1 hr,34.57%
same,% total recovery,6 hr,34.10%
same,% total recovery,24 hr,8.51%
same,% total recovery,48 hr,6.50%
same,% total recovery,72 hr,6.28%
same,% total recovery,96 hr,4.51%
same,% total recovery,192 hr,~5.53%
same,radioactivity in whole blood higher than in plasma,"throughout the period measured, rats i.v. 3 mg/20 μCi/kg",1.8–4.6 fold
same,total radioactivity found in the content of small intestine,"within the first hour after i.v. dosing, rats",53–86%
